Source: the NIST ThermoML archive (doi:10.1016/j.fluid.2014.04.002)
± gives the expanded uncertainty stated by the source.

Test: xn = mol fraction of the nth substance listed
Conditions: 101 kPa, Liquid; for viscosity: Concentric cylinders viscometry; for mass density: Vibrating tube method

COCCOCCOCCOCCOC [2,5,8,11,14-pentaoxapentadecane] + CCOC(=O)C(C)O
Conditions | mass density, 288.15 K [kg/m3] | mass density, 293.15 K [kg/m3] | mass density, 298.15 K [kg/m3] | mass density, 303.15 K [kg/m3] | viscosity, 288.15 K [mPa·s] | viscosity, 293.15 K [mPa·s] | viscosity, 298.15 K [mPa·s] | viscosity, 303.15 K [mPa·s]
x2 = 0 | 1016.7 ± 0.24 | 1012.06 ± 0.24 | 1007.42 ± 0.23 | 1002.79 ± 0.23 | 4.353 ± 0.075 | 3.795 ± 0.065 | 3.348 ± 0.058 | 2.983 ± 0.051
x2 = 0.0999 | 1018.51 ± 0.29 | 1013.83 ± 0.28 | 1009.15 ± 0.28 | 1004.48 ± 0.28 | 4.303 ± 0.075 | 3.749 ± 0.065 | 3.299 ± 0.057 | 2.933 ± 0.051
x2 = 0.1999 | 1020.55 ± 0.34 | 1015.83 ± 0.33 | 1011.11 ± 0.33 | 1006.39 ± 0.32 | 4.265 ± 0.075 | 3.713 ± 0.065 | 3.266 ± 0.057 | 2.9 ± 0.051
x2 = 0.2999 | 1022.59 ± 0.39 | 1017.82 ± 0.39 | 1013.05 ± 0.38 | 1008.28 ± 0.38 | 4.226 ± 0.075 | 3.673 ± 0.065 | 3.23 ± 0.057 | 2.864 ± 0.051
x2 = 0.3998 | 1024.79 ± 0.45 | 1019.98 ± 0.45 | 1015.17 ± 0.44 | 1010.34 ± 0.43 | 4.176 ± 0.075 | 3.623 ± 0.065 | 3.181 ± 0.057 | 2.815 ± 0.051
x2 = 0.4999 | 1027.14 ± 0.52 | 1022.26 ± 0.51 | 1017.37 ± 0.5 | 1012.47 ± 0.5 | 4.109 ± 0.074 | 3.557 ± 0.064 | 3.115 ± 0.056 | 2.752 ± 0.05
x2 = 0.6001 | 1029.57 ± 0.59 | 1024.61 ± 0.58 | 1019.64 ± 0.57 | 1014.66 ± 0.56 | 4.027 ± 0.074 | 3.478 ± 0.064 | 3.036 ± 0.056 | 2.681 ± 0.049
x2 = 0.6998 | 1032.25 ± 0.66 | 1027.18 ± 0.65 | 1022.11 ± 0.65 | 1017.03 ± 0.64 | 3.906 ± 0.072 | 3.364 ± 0.062 | 2.929 ± 0.055 | 2.58 ± 0.048
x2 = 0.8001 | 1034.95 ± 0.74 | 1029.8 ± 0.73 | 1024.63 ± 0.72 | 1019.45 ± 0.71 | 3.746 ± 0.07 | 3.219 ± 0.061 | 2.8 ± 0.053 | 2.463 ± 0.046
x2 = 0.9 | 1037.37 ± 0.83 | 1032.09 ± 0.82 | 1026.8 ± 0.81 | 1021.49 ± 0.8 | 3.53 ± 0.067 | 3.028 ± 0.058 | 2.633 ± 0.05 | 2.311 ± 0.044
